Assay results reported in PMC11129975, “A first-in-human phase I study of TAS-117, an allosteric AKT inhibitor, in patients with advanced solid tumors” (Cancer Chemotherapy and Pharmacology, 2024).

Assay: Phase I safety: adverse events, adverse drug reactions, DLTs in patients with advanced solid tumors
Type: in vivo, human
Text: This was a phase I, open-label, non-randomized, dose-escalating first-in-human study to evaluate the safety, pharmacokinetics, antitumor activity, pharmacodynamics, and pharmacogenomics of TAS-117 in patients with advanced solid tumors. The study had three phases: a dose escalation phase (DEP), a regimen modification phase (RMP), and a safety assessment phase (SAP). The treatment cycle on each regimen lasted 21 days. The DEP used an accelerated titration and 3 + 3 design. TAS-117 was administered orally once daily (QD) on an empty stomach (1 h before or 2 h after a meal). Dosing was determined based on a 4-week repeated oral-dose toxicology study in monkeys (data on file, Taiho Pharmaceutical Co., Ltd.); the highest non-severely toxic dose was 1.2 mg/kg/day, which was converted to 3.84 mg/body/day, or 2.4 mg/m^2. Therefore, the starting dose was determined to be ≤ 2.4 mg/m^2. At dose level 1, TAS-117 was administered at 2 mg QD (Day − 2), and the dose was increased to 4 mg QD after 2 days (Day 1). The RMP was conducted according to a 3 + 3 design. During this phase, the dose regimen was changed from QD administration to intermittent dosing of daily TAS-117 with 4 days on/3 days off. TAS-117 was administered on an empty stomach. Dose-limiting toxicities (DLTs) were evaluated in Cycle 1 of the DEP and RMP. […] The RD and regimen for the SAP were determined based on the safety, pharmacokinetics, pharmacodynamics, and antitumor activity profile determined in the DEP and RMP. During the SAP, the safety and preliminary efficacy profiles of TAS-117 were assessed at the RD and recommended regimen. Three cohorts were included in this assessment. Cohort 1 included patients with endometrial cancer with a PIK3CA mutation; cohort 2 included patients with endometrial cancer with an AKT1 mutation, AKT1 amplification, or AKT2 amplification; and cohort 3 included patients with ovarian clear cell carcinoma.
The primary endpoints were the proportion of patients who experienced DLTs in Cycle 1 of the DEP and RMP and the incidence of adverse events (AEs) and adverse drug reactions (ADRs) in the SAP. AEs and ADRs were coded using the Medical Dictionary for Regulatory Activities (MedDRA; version 24.1) and graded according to the National Cancer Institute Common Terminology Criteria for Adverse Events (CTCAE; version 4.03). Secondary endpoints were pharmacokinetic findings, changes in the ratio of phosphorylated PRAS40 (pPRAS40)/total PRAS40 from baseline, efficacy, and pharmacogenomics findings.

## C[C@]1(O)C[C@@](N)(c2ccc(-c3nc4n(c3-c3ccccc3)COc3ccncc3-4)cc2)C1 [TAS-117]
Total N = 65, All grade
  Adverse drug reactions: Blood AP increased: 7 (10.8) n (%)
  Adverse drug reactions: Decreased appetite: 10 (15.4) n (%)
  Adverse drug reactions: Diarrhea: 8 (12.3) n (%)
  Adverse drug reactions: Dry skin: 8 (12.3) n (%)
  Adverse drug reactions: GGT increased: 8 (12.3) n (%)
  Adverse drug reactions: GI disorders: 41 (63.1) n (%)
  Adverse drug reactions: General disorders and administration site conditions: 27 (41.5) n (%)
  Adverse drug reactions: Hyperglycemia: 30 (46.2) n (%)
  Adverse drug reactions: Investigations: 39 (60.0) n (%)
  Adverse drug reactions: Metabolism and nutrition disorders: 36 (55.4) n (%)
  Adverse drug reactions: Nausea: 16 (24.6) n (%)
  Adverse drug reactions: Neutrophil count decreased: 21 (32.3) n (%)
  Adverse drug reactions: Pruritus: 13 (20.0) n (%)
  Adverse drug reactions: Pyrexia: 17 (26.2) n (%)
  Adverse drug reactions: Rash maculo-papular: 58 (89.2) n (%)
  Adverse drug reactions: Skin and SC tissue disorders: 61 (93.8) n (%)
  Adverse drug reactions: Stomatitis: 37 (56.9) n (%)
  Adverse drug reactions: Vomiting: 7 (10.8) n (%)
  Adverse drug reactions: WBC count decreased: 25 (38.5) n (%)
  Adverse events: ALT increased: 12 (18.5) n (%)
  Adverse events: AST increased: 13 (20.0) n (%)
  Adverse events: Any events: 64 (98.5) n (%)
  Adverse events: Blood AP increased: 8 (12.3) n (%)
  Adverse events: Decreased appetite: 19 (29.2) n (%)
  Adverse events: Diarrhea: 15 (23.1) n (%)
  Adverse events: Dry skin: 11 (16.9) n (%)
  Adverse events: GGT increased: 11 (16.9) n (%)
  Adverse events: GI disorders: 51 (78.5) n (%)
  Adverse events: General disorders and administration site conditions: 39 (60.0) n (%)
  Adverse events: Hyperglycemia: 30 (46.2) n (%)
  Adverse events: Investigations: 42 (64.6) n (%)
  Adverse events: Metabolism and nutrition disorders: 44 (67.7) n (%)
  Adverse events: Nausea: 21 (32.3) n (%)
  Adverse events: Neutrophil count decreased: 21 (32.3) n (%)
  Adverse events: Pruritus: 13 (20.0) n (%)
  Adverse events: Pyrexia: 24 (36.9) n (%)
  Adverse events: Rash maculo-papular: 58 (89.2) n (%)
  Adverse events: Skin and SC tissue disorders: 61 (93.8) n (%)
  Adverse events: Stomatitis: 38 (58.5) n (%)
  Adverse events: Vomiting: 13 (20.0) n (%)
  Adverse events: WBC count decreased: 25 (38.5) n (%)
Total N = 65, ≥ Grade 3
  Adverse drug reactions: ALT increased: 2 (3.1) n (%)
  Adverse drug reactions: AST increased: 0 (0.0) n (%)
  Adverse drug reactions: Any events: 39 (60.0) n (%)
  Adverse drug reactions: Blood AP increased: 0 (0.0) n (%)
  Adverse drug reactions: Decreased appetite: 0 (0.0) n (%)
  Adverse drug reactions: Diarrhea: 0 (0.0) n (%)
  Adverse drug reactions: Dry skin: 0 (0.0) n (%)
  Adverse drug reactions: GGT increased: 5 (7.7) n (%)
  Adverse drug reactions: GI disorders: 1 (1.5) n (%)
  Adverse drug reactions: General disorders and administration site conditions: 0 (0.0) n (%)
  Adverse drug reactions: Hyperglycemia: 11 (16.9) n (%)
  Adverse drug reactions: Investigations: 20 (30.8) n (%)
  Adverse drug reactions: Metabolism and nutrition disorders: 11 (16.9) n (%)
  Adverse drug reactions: Nausea: 0 (0.0) n (%)
  Adverse drug reactions: Neutrophil count decreased: 9 (13.8) n (%)
  Adverse drug reactions: Pruritus: 0 (0.0) n (%)
  Adverse drug reactions: Pyrexia: 0 (0.0) n (%)
  Adverse drug reactions: Rash maculo-papular: 23 (35.4) n (%)
  Adverse drug reactions: Skin and SC tissue disorders: 24 (36.9) n (%)
  Adverse drug reactions: Stomatitis: 1 (1.5) n (%)
  Adverse drug reactions: Vomiting: 0 (0.0) n (%)
  Adverse drug reactions: WBC count decreased: 8 (12.3) n (%)
  Adverse events: ALT increased: 2 (3.1) n (%)
  Adverse events: AST increased: 1 (1.5) n (%)
  Adverse events: Any events: 44 (67.7) n (%)
  Adverse events: Blood AP increased: 1 (1.5) n (%)
  Adverse events: Decreased appetite: 1 (1.5) n (%)
  Adverse events: Diarrhea: 1 (1.5) n (%)
  Adverse events: Dry skin: 0 (0.0) n (%)
  Adverse events: GGT increased: 8 (12.3) n (%)
  Adverse events: GI disorders: 4 (6.2) n (%)
  Adverse events: General disorders and administration site conditions: 0 (0.0) n (%)
  Adverse events: Hyperglycemia: 11 (16.9) n (%)
  Adverse events: Investigations: 24 (36.9) n (%)
  Adverse events: Metabolism and nutrition disorders: 13 (20.0) n (%)
  Adverse events: Nausea: 0 (0.0) n (%)
  Adverse events: Neutrophil count decreased: 9 (13.8) n (%)
  Adverse events: Pruritus: 0 (0.0) n (%)
  Adverse events: Pyrexia: 0 (0.0) n (%)
  Adverse events: Rash maculo-papular: 23 (35.4) n (%)
  Adverse events: Skin and SC tissue disorders: 24 (36.9) n (%)
  Adverse events: Stomatitis: 1 (1.5) n (%)
  Adverse events: Vomiting: 0 (0.0) n (%)
  Adverse events: WBC count decreased: 8 (12.3) n (%)
All treated patients
  Patients who developed AEs related to skin disorders: 93.8%
  Patients with maculopapular rash: 89.2%
Dose level 4 (24 mg intermittent administration)
  Patients who discontinued because of AEs: four patients
Intermittent dosing (4 days on/3 days off)
  Recommended dose (RD): 24 mg
Once daily up to 16 mg/day and intermittent dosing of 24 mg/day
  Tolerability: well tolerated
Printed as % of patients with this AE
  Maculopapular rash grade ≥ 3: 35.4%
